Reference: US12428648B2, “Compositions comprising peptides that block transmission of orthotospoviruses” (priority 2019, dated 2025)
No end group written: not given here.

Tested on: not listed separately
Test: Dissolution of the synthesized peptides
Type: physicochemical
Conditions: molecular biology grade water; 25% acetic acid for A229

| Substance | solubility of the peptide, in words |
| --- | --- |
| NASIAGDHEVSQE [AGD] | dissolved in molecular biology grade water |
| NASIRAAHEVSQE [RAA] | dissolved in molecular biology grade water |
| NASIRADHEVSQE [RAD] | insoluble in H2O |
| NASIAGAHEVSQE [AGA] | dissolved in molecular biology grade water |
| NASIAADHEVSQE [AAD] | insoluble in H2O |
| NASIAAAHEVSQE [AAA] | dissolved in molecular biology grade water |
| RLTGECAITKVSLTN [A229] | did not dissolve in either water or 25% acetic acid |
| RLTGECNITKVSLTN [N229] | dissolved in molecular biology grade water |
| NASIRGAHEVSQE [RGA] | dissolved in molecular biology grade water |
| NASIRGDHEVSQE [RGD] | dissolved in molecular biology grade water |

Target: α5β1 (Homo sapiens, UniProt P05556+P08648)
Test: not given
Conditions: Hersel et al., 2003; cited from earlier work

α5β1, sequence (P08648 42-1049): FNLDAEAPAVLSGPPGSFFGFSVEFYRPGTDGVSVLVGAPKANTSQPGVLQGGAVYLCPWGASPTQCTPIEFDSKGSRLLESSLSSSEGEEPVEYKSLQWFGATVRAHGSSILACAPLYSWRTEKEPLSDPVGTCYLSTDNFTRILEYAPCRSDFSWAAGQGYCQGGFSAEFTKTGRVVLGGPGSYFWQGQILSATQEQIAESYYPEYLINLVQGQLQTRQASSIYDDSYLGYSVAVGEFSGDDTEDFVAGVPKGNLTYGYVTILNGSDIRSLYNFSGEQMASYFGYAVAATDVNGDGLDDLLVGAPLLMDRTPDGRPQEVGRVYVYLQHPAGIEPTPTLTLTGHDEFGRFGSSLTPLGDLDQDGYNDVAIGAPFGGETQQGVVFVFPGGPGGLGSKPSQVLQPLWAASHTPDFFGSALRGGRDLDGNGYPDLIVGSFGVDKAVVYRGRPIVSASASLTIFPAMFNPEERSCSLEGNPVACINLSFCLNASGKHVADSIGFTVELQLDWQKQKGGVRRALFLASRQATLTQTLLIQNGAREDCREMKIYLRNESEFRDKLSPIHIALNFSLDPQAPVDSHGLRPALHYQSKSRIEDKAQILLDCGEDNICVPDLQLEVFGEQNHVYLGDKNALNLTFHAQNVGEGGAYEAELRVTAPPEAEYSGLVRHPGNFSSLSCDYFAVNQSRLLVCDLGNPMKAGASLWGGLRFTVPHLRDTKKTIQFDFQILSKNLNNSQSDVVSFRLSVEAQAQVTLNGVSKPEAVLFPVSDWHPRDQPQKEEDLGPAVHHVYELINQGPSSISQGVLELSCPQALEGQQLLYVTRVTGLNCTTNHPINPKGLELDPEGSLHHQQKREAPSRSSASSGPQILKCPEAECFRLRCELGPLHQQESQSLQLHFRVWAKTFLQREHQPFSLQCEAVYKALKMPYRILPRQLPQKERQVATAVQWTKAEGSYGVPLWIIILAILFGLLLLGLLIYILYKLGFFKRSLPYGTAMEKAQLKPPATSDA
α5β1, sequence (P05556 21-798): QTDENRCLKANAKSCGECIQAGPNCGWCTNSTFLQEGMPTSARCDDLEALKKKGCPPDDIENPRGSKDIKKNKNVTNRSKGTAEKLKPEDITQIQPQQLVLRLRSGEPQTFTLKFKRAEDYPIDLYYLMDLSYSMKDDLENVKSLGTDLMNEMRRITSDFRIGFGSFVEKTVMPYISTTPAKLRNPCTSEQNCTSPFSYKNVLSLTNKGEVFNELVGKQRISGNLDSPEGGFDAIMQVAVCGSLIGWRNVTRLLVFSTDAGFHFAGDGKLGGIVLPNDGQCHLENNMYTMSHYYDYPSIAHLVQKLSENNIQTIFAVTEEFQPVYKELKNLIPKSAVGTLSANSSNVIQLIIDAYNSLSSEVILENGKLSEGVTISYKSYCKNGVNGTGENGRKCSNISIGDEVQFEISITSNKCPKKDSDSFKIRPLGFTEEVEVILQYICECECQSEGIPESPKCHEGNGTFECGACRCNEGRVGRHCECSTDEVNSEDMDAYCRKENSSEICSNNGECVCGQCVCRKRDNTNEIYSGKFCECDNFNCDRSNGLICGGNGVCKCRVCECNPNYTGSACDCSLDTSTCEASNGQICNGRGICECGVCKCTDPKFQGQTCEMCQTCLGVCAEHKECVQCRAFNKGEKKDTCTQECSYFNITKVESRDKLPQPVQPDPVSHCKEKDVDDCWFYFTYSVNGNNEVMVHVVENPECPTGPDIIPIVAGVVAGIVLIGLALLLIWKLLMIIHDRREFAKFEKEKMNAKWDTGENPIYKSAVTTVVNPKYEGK

| Substance | integrin binding preference, in words |
| --- | --- |
| RGDSPASSKP | bind preferentially to α5β1 |
| GRGDSP | bind preferentially to α5β1 |

Target: αvβ3 (Homo sapiens, UniProt P05106+P06756)
Test: not given
Conditions: Hersel et al., 2003; cited from earlier work

αvβ3, sequence (P06756 31-1048): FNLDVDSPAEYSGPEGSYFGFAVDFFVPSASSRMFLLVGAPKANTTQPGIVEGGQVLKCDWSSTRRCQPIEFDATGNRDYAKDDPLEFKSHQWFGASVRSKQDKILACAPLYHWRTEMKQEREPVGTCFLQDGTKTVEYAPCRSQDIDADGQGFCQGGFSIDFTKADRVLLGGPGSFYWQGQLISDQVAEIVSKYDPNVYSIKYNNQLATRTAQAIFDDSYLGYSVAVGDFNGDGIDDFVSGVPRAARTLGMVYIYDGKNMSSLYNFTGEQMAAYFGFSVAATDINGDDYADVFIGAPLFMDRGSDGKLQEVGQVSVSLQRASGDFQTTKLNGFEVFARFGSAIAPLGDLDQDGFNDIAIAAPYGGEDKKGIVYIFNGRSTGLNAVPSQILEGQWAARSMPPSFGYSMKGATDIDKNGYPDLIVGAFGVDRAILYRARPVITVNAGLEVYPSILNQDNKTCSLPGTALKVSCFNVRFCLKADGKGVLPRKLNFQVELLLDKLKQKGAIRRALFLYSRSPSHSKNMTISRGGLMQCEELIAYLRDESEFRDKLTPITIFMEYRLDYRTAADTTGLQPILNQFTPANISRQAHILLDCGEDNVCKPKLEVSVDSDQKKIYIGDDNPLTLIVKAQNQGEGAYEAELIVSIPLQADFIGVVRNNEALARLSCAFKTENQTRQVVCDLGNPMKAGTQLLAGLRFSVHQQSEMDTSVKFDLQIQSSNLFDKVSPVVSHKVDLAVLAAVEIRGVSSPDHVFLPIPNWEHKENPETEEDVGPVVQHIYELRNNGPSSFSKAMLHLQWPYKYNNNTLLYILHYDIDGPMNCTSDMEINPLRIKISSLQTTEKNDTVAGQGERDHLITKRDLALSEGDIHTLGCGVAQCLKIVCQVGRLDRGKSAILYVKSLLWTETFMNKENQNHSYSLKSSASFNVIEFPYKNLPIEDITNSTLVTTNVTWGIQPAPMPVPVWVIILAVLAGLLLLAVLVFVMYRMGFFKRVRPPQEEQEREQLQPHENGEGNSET
αvβ3, sequence (P05106 27-788): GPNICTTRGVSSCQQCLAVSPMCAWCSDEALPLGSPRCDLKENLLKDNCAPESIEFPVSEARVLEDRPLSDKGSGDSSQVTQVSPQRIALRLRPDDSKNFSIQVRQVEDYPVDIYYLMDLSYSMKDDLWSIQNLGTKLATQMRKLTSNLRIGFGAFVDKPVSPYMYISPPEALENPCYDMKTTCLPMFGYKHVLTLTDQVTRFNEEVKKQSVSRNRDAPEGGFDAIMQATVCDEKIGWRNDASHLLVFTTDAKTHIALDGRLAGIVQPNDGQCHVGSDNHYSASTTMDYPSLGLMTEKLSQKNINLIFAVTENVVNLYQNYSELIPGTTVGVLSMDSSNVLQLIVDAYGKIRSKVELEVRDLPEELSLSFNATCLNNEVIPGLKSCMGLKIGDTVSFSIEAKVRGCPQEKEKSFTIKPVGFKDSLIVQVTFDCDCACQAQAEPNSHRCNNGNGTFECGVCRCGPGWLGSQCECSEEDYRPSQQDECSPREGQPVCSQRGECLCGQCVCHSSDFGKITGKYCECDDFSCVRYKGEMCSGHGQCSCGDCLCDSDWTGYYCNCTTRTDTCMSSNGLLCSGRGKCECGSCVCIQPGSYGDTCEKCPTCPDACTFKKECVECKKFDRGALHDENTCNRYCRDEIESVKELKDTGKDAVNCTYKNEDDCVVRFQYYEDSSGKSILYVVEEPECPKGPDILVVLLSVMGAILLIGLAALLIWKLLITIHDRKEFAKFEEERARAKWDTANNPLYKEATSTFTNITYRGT

| Substance | integrin selectivity, in words |
| --- | --- |
| GPenGRGDSPCA | selective for αvβ3 |
